Patent US4959362A, “Pharmaceutical compositions containing certain ascorbic acid derivatives useful in the prophylaxis and treatment of disorders of the circulatory system” (Takeda Chemical Industries, Inc., priority 1983, dated 1990)

Key:
[1] = tested on: lipid peroxide formation in rat brain tissue homogenate; test: Inhibition of lipid peroxide formation in rat brain tissue homogenate (TBA method); format: biochemical, rat (male SD); settings: 10^-5 M; for Inhibitory Effect (%) on lipid peroxide formation: n = 3, mean ± standard error, 37° C., 1 hour
Experimental: Activity to inhibit lipid peroxide formation in rat brain tissue homogenate:
Male SD rats (12-weeks old) were subjected to exsanguination under anesthesia with pentobarbital, then the brain was excised. The brain tissue was homogenized in a phosphate buffer solution (pH 7.4) to prepare a 5% homogenate. After incubation of the homogenate at 37° C. for 1 hour, the amount of lipid peroxides formed therein was determined by thiobarbituric acid (TBA) method in accordance with the report of Ohkawa et al. on Analytical Biochemistry 95 351, 1979.
The test drug was added to the 5% homogenate before incubation so as to make the final concentration be 10^-5 M. The activity to inhibit the formation of lipid peroxides was compared with that of the reference group to which was added the solvent (DMSO), and shown by % inhibition.

[2] = tested on: ventricular arrhythmias after coronary artery occlusion-reperfusion in rat hearts; test: Inhibition of ventricular arrhythmias during coronary artery occlusion-reperfusion in rat hearts; format: in vivo, rat (male SD); settings: oral; for Extrasystole / Mortality (animals) / Mortality (percentage) / Ventricular fibrillation Incidence (animals) / Ventricular fibrillation Incidence (percentage) / Ventricular tachycardia Incidence (animals) / Ventricular tachycardia Incidence (percentage) / Ventricular fibrillation Duration / Ventricular tachycardia Duration: 50 mg/kg total; for Ventricular fibrillation Duration / Ventricular tachycardia Duration: average ±SEM; for occurrence of ventricular arrhythmias: 20 and 50 mg/kg of compound (1-12), 50 mg/kg of vitamin C or E
Experimental: Action to inhibit ventricular arrhythmias occurred during coronary artery occlusion-reperfusion in rat hearts
Male SD rats (9~13 - weeks old, 250~370 g) were used. The animals were subjected to thoractonomy under artificial respiration while anesthesia was maintained by administering pentobarbital. […] By recording standard limb lead II electrocardiograms, occurrence of ventricular arrhythmias was examined.
The animals were administered, under non-anesthesia, with test drugs as a gum arabic suspension at the dosage of 30 mg/kg at the time of about 90 minutes and of 20 mg/kg at the time of about 45 minutes (total: 50 mg/kg), or at the dosage of 10 mg/kg each (total: 20 mg/kg) at the time of about 90 minutes and about 45 minutes prior to closure of the coronary artery. The results are shown in Table 4 in terms of the total amount of the dosage.
Incidences of ventricular fibrillation and ventricular tachycardia are shown by the percentage of the number of animals presenting the symptoms relative to the number of animals subjected to the test, and the duration of the symptoms was shown in average ±SEM by seconds. Extrasystole is shown by the number of systole/min, and the mortality is shown by the percentage of the number of animals killed relative to the number of animals subjected to the test.

[3] = Oxidation inhibitory activity: reduction of a stable free radical (DPPH); format: biochemical; settings: FIG. 1
Experimental: Oxidation inhibitory activity determined with the use of a stable radical: In accordance with the method of M. S. Brois [Nature, 181, 1199, 1958], the activity to reduce a stable free radical, α,α-diphenyl-β-picryl hydrazyl (DPPH), was determined, which was used as an index of the oxidation inhibitory activity. […] Then, 20 minutes later, the absorbance at a wavelength of 517 nm was measured with the use of a spectrophotometer.

[4] = tested on: renal disorders due to Fe^3+ -nitrilotriacetate (NTA); test: Effects on renal disorders in rats due to Fe^3+ nitrilotriacetate (NTA); format: in vivo, rat (male SLC-Wistar); settings: 30 mg/kg orally; for Body Weight / Kidney Weight / Occult Blood Test (positive animals/animals) / Protein in urine / Volume of urine: n = 6, last day of the experiment
Experimental: Effects to alleviate renal disorders in rats due to Fe^3+ nitrilotriacetate:
Male SLC-Wistar rats (4-weeks old, 64~85 g) were used. The animals were housed individually in metabolism cages and allowed free access to feed and water. Body weight, volume of urine and protein in urine (BIO-RAD method) were determined every day, and occult blood reaction was also examined (Labstick method). On the last day of the experiment, the kidney was excised and weighed.
The animals were orally administered once daily with test drugs or vehicles thereof (suspension in gum arabic), and, 40~60 minutes later, were injected intraperitoneally with nitrilotriacetate (NTA) or Fe^3+ -NTA. Fe^3+ -NTA was used in a form of mixture (1:4, molar ratio), and the dosages were 5 mg/kg in terms of Fe^3+ for 3 days and successively 10 mg/kg for 5 days.
Test drugs were compound (1-12), vitamin C and vitamin E, and the dosages were all 30 mg/kg.

CCCCCCCCCCCCCCCCOC1=C(O)[C@@H]([C@@H](O)CO)OC1=O [Compound (1-10), 2-O-hexadecyl-L-ascorbic acid]
Inhibitory Effect (%) on lipid peroxide formation [1]: 78.5 ± 11.7%

CCCCCCCCCCOC1=C(O)[C@@H]([C@@H](O)CO)OC1=O [Compound (1-4)]
Inhibitory Effect (%) on lipid peroxide formation [1]: 40.0 ± 1.1%

CCCCCCCCCCCCCCOC1=C(O)[C@@H]([C@@H](O)CO)OC1=O [Compound (1-8)]
Inhibitory Effect (%) on lipid peroxide formation [1]: 93.1 ± 5.3%

CCCCCCCCCCCCCCCCCCOC1=C(O)C(=O)O[C@@H]1[C@@H](O)CO [reference compound]
Inhibitory Effect (%) on lipid peroxide formation [1]: 45.4 ± 8.7%

CCCCCCCCCCCCCCCCCCCCOC1=C(O)[C@@H]([C@@H](O)CO)OC1=O [Compound (1-13)]
Inhibitory Effect (%) on lipid peroxide formation [1]: 95.4 ± 4.6%

CCCCCCCCOC1=C(O)[C@@H]([C@@H](O)CO)OC1=O [Compound (1-2)]
Inhibitory Effect (%) on lipid peroxide formation [1]: -6.6 ± 3.0%

CCCCCCCCCCCCCCCOC1=C(O)[C@@H]([C@@H](O)CO)OC1=O [Compound (1-9), 2-O-pentadecyl-L-ascorbic acid]
Inhibitory Effect (%) on lipid peroxide formation [1]: 100.0 ± 0%

CCCCCCCCCCCCOC1=C(O)[C@@H]([C@@H](O)CO)OC1=O [Compound (1-6), 2-O-Dodecyl-L-ascorbic acid]
Inhibitory Effect (%) on lipid peroxide formation [1]: 55.7 ± 26.5%

Vitamin E [reference compound]
Extrasystole [2]: 7.0 ± 4.1 systole/min
Mortality (animals) [2]: 1/10
Mortality (percentage) [2]: 10 percentage
Ventricular fibrillation Incidence (animals) [2]: 6/10
Ventricular fibrillation Incidence (percentage) [2]: 60 percentage
Ventricular tachycardia Incidence (animals) [2]: 7/10
Ventricular tachycardia Incidence (percentage) [2]: 70 percentage
Ventricular fibrillation Duration [2]: 43.4 ± 36.0 s
Ventricular tachycardia Duration [2]: 22.3 ± 9.7 s
occurrence of ventricular arrhythmias [2]: no significant effects
DPPH reducing activity compared with the test drug [3]: activity equal to that of the test drug
Inhibitory Effect (%) on lipid peroxide formation [1]: 44.9 ± 11.7%
Effect on renal disorders [4]: substantially the same effects
occult blood detection [4]: in more than half of the test animals, occult blood test was positive
Body Weight [4]: 99.3 ± 2.3 g
Kidney Weight [4]: 54.3 ± 2.7 mg
Occult Blood Test (positive animals/animals) [4]: 4/6
Protein in urine [4]: 6.3 ± 1.4 mg/day
Volume of urine [4]: 9.0 ± 1.0 mL/day

CCCCCCCCCCCCCCCCCCCCCCOC1=C(O)[C@@H]([C@@H](O)CO)OC1=O [Compound (1-14)]
Inhibitory Effect (%) on lipid peroxide formation [1]: 38.1 ± 16.6%

O=C1O[C@H]([C@@H](O)CO)C(O)=C1O [Vitamin C, ascorbic acid]
Extrasystole [2]: 5.1 ± 1.0 systole/min
Mortality (animals) [2]: 0/6
Mortality (percentage) [2]: 0 percentage
Ventricular fibrillation Incidence (animals) [2]: 6/6
Ventricular fibrillation Incidence (percentage) [2]: 100 percentage
Ventricular tachycardia Incidence (animals) [2]: 6/6
Ventricular tachycardia Incidence (percentage) [2]: 100 percentage
Ventricular fibrillation Duration [2]: 9.7 ± 2.5 s
Ventricular tachycardia Duration [2]: 19.0 ± 3.0 s
occurrence of ventricular arrhythmias [2]: no significant effects
DPPH reducing activity compared with the test drug [3]: activity equal to that of the test drug
Activity on lipid peroxide formation [1]: promoted the formation of lipid peroxides remarkably
Inhibitory Effect (%) on lipid peroxide formation [1]: -71.6 ± 36.8%
Effect on renal disorders [4]: did not show significant effect for alleviating renal disorders
Body Weight [4]: 89.2 ± 4.1 g
Kidney Weight [4]: 64.5 ± 1.7 mg
Occult Blood Test (positive animals/animals) [4]: 5/6
Protein in urine [4]: 10.7 ± 2.4 mg/day
Volume of urine [4]: 10.3 ± 1.7 mL/day
